# Measurements as given in US10588316B2 (priority 2015, dated 2020).
# Where “and” joins values, the source holds several entries; their conditions need not be identical. Equal values may be shown once. Read-outs that look alike come from different tables or passages of the source.
# What was measured:
# wheat scab [1] = type: in vivo
# [2] = type: in vivo, wheat; conditions: in vivo
# [3] = type: in vivo, wheat; conditions: in vivo; remark: listed apart in the source
# [4] = test system: carbendazim-resistant Fusarium asiaticum; test: microbe, parasite or virus in culture; type: cell-based; conditions: for inhibition at 1 µg/mL / inhibition at 10 µg/mL / inhibition at 100 µg/mL / inhibition at 1000 µg/mL / inhibition at 10000 µg/mL: Fusarium asiaticum, read-out: DON Biosynthesis Inhibition Rate
# rust [5] = type: in vivo, wheat; conditions: in vivo
# wheat scab [6] = type: in vivo; remark: listed apart in the source
# rust [7] = test system: rust; set-up: species or system barley; conditions: in vivo
# [8] = test system: Fusarium graminearum and Fusarium asiaticum; test: organism not typed; type: cell-based; conditions: read-out: inhibitory effect on the growth of the two types of Fusaria
# wheat scab [9] = type: in vivo; remark: listed apart in the source
# rust [10] = type: in vivo, wheat; conditions: in vivo; remark: listed apart in the source
# powdery mildew [11] = type: in vivo, wheat; conditions: in vivo
# wheat scab [12] = type: in vivo; conditions: Preparation 100 g/mu; Jinggangmycin 20, Tebuconazole 0 g ai. agent/mu
# Fusarium asiaticum = test: microbe, parasite or virus in culture; type: cell-based
# rust [13] = test system: rust; set-up: species or system wheat; conditions: in vivo
# leaf rust fungus = test system: leaf rust fungus; set-up: species or system wheat; conditions: in vivo
# powdery mildew [14] = type: in vivo, wheat; conditions: in vivo; remark: listed apart in the source
# powdery mildew [15] = type: in vivo, wheat; conditions: in vivo; remark: listed apart in the source
# wheat scab [16] = type: in vivo; remark: listed apart in the source
# powdery mildew [17] = type: in vivo, wheat; conditions: in vivo; remark: listed apart in the source
# rust [18] = type: in vivo, wheat; conditions: in vivo; remark: listed apart in the source
# rust [19] = type: in vivo, wheat; conditions: in vivo; remark: listed apart in the source
# leaf blight [20] = test system: leaf blight; set-up: species or system wheat; conditions: in vivo
# powdery mildew [21] = type: in vivo, wheat; conditions: in vivo; remark: listed apart in the source
# Fusarium graminearum = test: microbe, parasite or virus in culture; type: cell-based; conditions: for Average Fungal Colony Diameter F.g: sensitive strains
# leaf blight [22] = type: in vivo, wheat; conditions: in vivo
# leaf blight [23] = type: in vivo, wheat; conditions: in vivo; remark: listed apart in the source
# wheat scab [24] = type: in vivo; conditions: Preparation 100 (mL/mu); Jinggangmycin 20, Tebuconazole 0 g ai. agent/mu
# leaf blight [25] = type: in vivo, wheat; conditions: in vivo; remark: listed apart in the source
# powdery mildew fungus = test system: powdery mildew fungus; set-up: species or system wheat; conditions: in vivo
# Tri5 gene = type: cell-based, Fusarium asiaticum
smiles,measurement,setting,value
"OCC1=CC(N[C@H]2C[C@H](CO)[C@@H](OC3O[C@H](CO)[C@@H](O)[C@H](O)[C@H]3O)C(O)[C@H]2O)[C@H](O)[C@@H](O)C1O (stereo partly shown) [Jinggangmycin, jinggangmycin A]",Disease Index Prevention Effect % Head Blight,wheat scab [1]; Jinggangmycin 6 g ai. agent/mu,0%
same,Disease Index Prevention Effect % Head Blight,wheat scab [1]; Jinggangmycin 9 g ai. agent/mu,17.6%
same,Disease Index Prevention Effect % Head Blight,wheat scab [1]; Jinggangmycin 15 g ai. agent/mu,28.3%
same,Disease Index Prevention Effect % Head Blight,wheat scab [1]; Jinggangmycin 21 g ai. agent/mu,35.4%
same,Thousand Kernel Weight,[2],38.5 g and 40.1 g and 37.8 g and 41.5 g
same,Thousand Kernel Weight,[3],37.5 g and 38.6 g and 37.6 g
same,inhibition at 1 µg/mL,[4]; 168 h,28.6%
same,inhibition at 10 µg/mL,[4]; 168 h,35.5%
same,inhibition at 100 µg/mL,[4]; 168 h,45.2%
same,inhibition at 1000 µg/mL,[4]; 168 h,65.5%
same,inhibition at 10000 µg/mL,[4]; 168 h,75.9%
same,inhibition at 1 µg/mL,[4]; 336 h,1.7%
same,inhibition at 10 µg/mL,[4]; 336 h,7.87%
same,inhibition at 100 µg/mL,[4]; 336 h,29.9%
same,inhibition at 1000 µg/mL,[4]; 336 h,57%
same,inhibition at 10000 µg/mL,[4]; 336 h,75.4%
same,Toxin Production Capability of Hyphae,"[4]; Jinggangmycin 1 μg/ml, 7 days of culture",62.82 μgDON/g by dry weight of hyphae
same,Toxin Production Capability of Hyphae,"[4]; Jinggangmycin 1 μg/ml, 14 days of culture",51.43 μgDON/g by dry weight of hyphae
same,Toxin Production Capability of Hyphae,"[4]; Jinggangmycin 10 μg/ml, 7 days of culture",56.76 μgDON/g by dry weight of hyphae
same,Toxin Production Capability of Hyphae,"[4]; Jinggangmycin 10 μg/ml, 14 days of culture",48.20 μgDON/g by dry weight of hyphae
same,Toxin Production Capability of Hyphae,"[4]; Jinggangmycin 100 μg/ml, 7 days of culture",48.23 μgDON/g by dry weight of hyphae
same,Toxin Production Capability of Hyphae,"[4]; Jinggangmycin 100 μg/ml, 14 days of culture",36.68 μgDON/g by dry weight of hyphae
same,Toxin Production Capability of Hyphae,"[4]; Jinggangmycin 1000 μg/ml, 7 days of culture",30.35 μgDON/g by dry weight of hyphae
same,Toxin Production Capability of Hyphae,"[4]; Jinggangmycin 1000 μg/ml, 14 days of culture",22.52 μgDON/g by dry weight of hyphae
same,Toxin Production Capability of Hyphae,"[4]; Jinggangmycin 10000 μg/ml, 7 days of culture",21.23 μgDON/g by dry weight of hyphae
same,Toxin Production Capability of Hyphae,"[4]; Jinggangmycin 10000 μg/ml, 14 days of culture",12.85 μgDON/g by dry weight of hyphae
same,Disease Index Prevention Effect % Rust,rust [5],6.8% and 6.5% and 0%
same,Disease Index Prevention Effect % Head Blight,wheat scab [6]; Jinggangmycin 0.5 g ai. agent/mu,0.0%
same,Disease Index Prevention Effect % Head Blight,wheat scab [6]; Jinggangmycin 1.0 g ai. agent/mu,0.0%
same,Disease Index Prevention Effect % Head Blight,wheat scab [6]; Jinggangmycin 1.3 g ai. agent/mu,0.0%
same,Disease Index Prevention Effect % Head Blight,wheat scab [6]; Jinggangmycin 2.5 g ai. agent/mu,0.0%
same,Disease Index Prevention Effect % Head Blight,wheat scab [6]; Jinggangmycin 5.0 g ai. agent/mu,0.0%
same,Disease Index Prevention Effect % Head Blight,wheat scab [6]; Jinggangmycin 8.0 g ai. agent/mu,17.9%
same,Disease Index Prevention Effect % Head Blight,wheat scab [6]; Jinggangmycin 14.0 g ai. agent/mu,23.7%
same,Disease Index Prevention Effect % Head Blight,wheat scab [6]; Jinggangmycin 16.0 g ai. agent/mu,27.8%
same,Disease Index Prevention Effect % Head Blight,wheat scab [6]; Jinggangmycin 28.0 g ai. agent/mu,29.6%
same,Disease Index Prevention Effect % Rust,rust [7],0%
same,inhibition at 50 µg/mL,[8],6.5 to 7.8%
same,Disease Index Prevention Effect % Head Blight,"wheat scab [9]; Preparation 30 g/mu, Jinggangmycin 6 g ai. agent/mu",7.4%
same,Disease Index Prevention Effect % Head Blight,"wheat scab [9]; Preparation 45 g/mu, Jinggangmycin 9 g ai. agent/mu",9.4%
same,Disease Index Prevention Effect % Head Blight,"wheat scab [9]; Preparation 60 g/mu, Jinggangmycin 12 g ai. agent/mu",10.2%
same,Disease Index Prevention Effect % Head Blight,"wheat scab [9]; Preparation 75 g/mu, Jinggangmycin 15 g ai. agent/mu",34.2%
same,Disease Index Prevention Effect % Rust,rust [10],6.5%
same,Disease Index Prevention Effect % Powdery Mildew,powdery mildew [11],8.5% and 0%
same,Disease Index Prevention Effect % Head Blight,wheat scab [12],40.2%
same,Average Fungal Colony Diameter F.a,Fusarium asiaticum,76.3 mm and 75.6 mm and 69.4 mm
same,inhibition at 50 µg/mL,"Fusarium asiaticum; Fusarium asiaticum, read-out: Growth Inhibition Rate F.a",7.8%
same,Disease Index Prevention Effect % Rust,rust [13],5.1% and 3.6% and 0%
same,Incidence Prevention Effect % Rust,leaf rust fungus,0% and 4.5%
same,Disease Index Prevention Effect % Powdery Mildew,powdery mildew [14],10.6%
same,Disease Index Prevention Effect % Powdery Mildew,powdery mildew [15],8.6% and 6.6% and 3% and 1.8%
same,Disease Index Prevention Effect % Head Blight,"wheat scab [16]; Preparation 15 g/mu, Jinggangmycin 3 g ai. agent/mu",0%
same,Disease Index Prevention Effect % Head Blight,"wheat scab [16]; Preparation 37.5 g/mu, Jinggangmycin 7.5 g ai. agent/mu",24.2%
same,Disease Index Prevention Effect % Head Blight,"wheat scab [16]; Preparation 50 g/mu, Jinggangmycin 10 g ai. agent/mu",32.4%
same,Disease Index Prevention Effect % Powdery Mildew,powdery mildew [17],7.3% and 4.4% and 4.5% and 0%
same,Disease Index Prevention Effect % Rust,rust [18],8.9% and 0%
same,Disease Index Prevention Effect % Rust,rust [19],6.5%
same,Disease Index Prevention Effect % Leaf Blight,leaf blight [20],8.5% and 7.9% and 0%
same,Disease Index Prevention Effect % Powdery Mildew,powdery mildew [21],10.6%
same,inhibition at 50 µg/mL,"Fusarium graminearum; Fusarium graminearum, read-out: Growth Inhibition Rate F.g",6.6%
same,Average Fungal Colony Diameter F.g,Fusarium graminearum; Jinggangmycin A 0.1 μg/mL,76.3 mm
same,Average Fungal Colony Diameter F.g,Fusarium graminearum; Jinggangmycin A 1.0 μg/mL,76.2 mm
same,Average Fungal Colony Diameter F.g,Fusarium graminearum; Jinggangmycin A 10.0 μg/mL,75.4 mm
same,Average Fungal Colony Diameter F.g,Fusarium graminearum; Jinggangmycin A 50.0 μg/mL,70.3 mm
same,Disease Index Prevention Effect % Leaf Blight,leaf blight [22],7.8%
same,Disease Index Prevention Effect % Leaf Blight,leaf blight [23],8.6% and 8.8% and 5.8%
same,Disease Index Prevention Effect % Head Blight,wheat scab [24],34.2%
same,Disease Index Prevention Effect % Leaf Blight,leaf blight [25],7.8%
same,Incidence Prevention Effect % Powdery Mildew,powdery mildew fungus,0% and 6.5%
same,Rate of Inhibition on Relative Expression Level of Tri5 Gene,Tri5 gene,59% and 66% and 84% and 87% and 90%
